Data set [1] has as its system C57BL/6 wild-type mice. The data set is described as follows: Hemoglobin and leukocyte counts in cardiotoxicity study (FIG. 16d). The settings on record: 9 mg/kg DOX equivalent i.v. once weekly for 4 weeks. It counts as in vivo.
Description: C57BL6/J mice received an equivalent weekly cumulative dose of free doxorubicin, commercially available liposomal formulation of doxorubicin (Doxil), NanoDox, NanoDoxCurc, or vehicle only for 4 weeks. One week after the last dose, various cardiac parameters were examined by echocardiogram followed by collection of blood by cardiac puncture. […] (d) Hemoglobin and leukocyte counts from blood samples from each treatment arm.
Blood samples were collected from experimental animals by cardiac puncture and hearts were collected for histological and molecular studies.
The conditions of data set [2]: cited from earlier work.
Data set [3] concerns C57BL/6 wild-type mice. Briefly: Glutathione and glutathione peroxidase (GPx) in mouse heart lysates. It counts as in vivo. The method, then:
To evaluate the degree of oxidative stress in treated mice, levels of the antioxidants glutathione and glutathione peroxidase (GPx) were evaluated by western blot and ELISA, respectively, in mouse heart lysates.

The test system of data set [4] is BxPC3. Briefly: In vitro cell viability (MTT) assay with gemcitabine, BxPC3 (FIG. 9). The settings on record: BxPC3, 96 hours. It counts as cell-based, human. The method, then: FIG. 9 illustrates in vitro cell viability (MTT assay) performed using the water-soluble drug gemcitabine conjugated to the acrylic acid (AA) surface reactive functional group of polymeric nanoparticle. Unlike the poorly water drugs that are encapsulated within the nanoparticle, water soluble drugs like gemcitabine can be conjugated to the nanoparticle surface, rendering this compound amenable to oral delivery. Human pancreatic cancer cell line BxPC3 is incubated with increasing dosages of either free gemcitabine (black bar), nano-gemcitabine (white bar), void polymer (grey bar), or PBS solvent (patterned bar). UT=untreated. […] All assays were performed in triplicate and means and standard deviations are plotted.
Gemcitabine is a water soluble compound, and thus differs from the poorly water soluble drugs discussed above that are encapsulated within the hydrophobic core of the polymeric nanoparticles. Herein, we describe the chemical conjugation of gemcitabine, as one illustrative example of water soluble drugs, to the hydrophilic surface of the polymeric nanoparticles. Such conjugation is expected to render gemcitabine amenable to oral delivery, utilizing the oral bioavailability properties of the said polymeric nanoparticles used as a carrier. 10 mg of NMA622 polymeric nanoparticles were dispersed in 10 ml of water by vortexing. […]

Data set [5] in a line: Solubilization of poorly water soluble drugs in water (FIG. 2). The settings on record: visual. It counts as physicochemical.
The nature of data set [6]: Blood levels of rapamycin 2 hours after oral delivery (FIG. 10). It counts as in vivo, C57/B6 mice. The settings on record: 15 mg/kg rapamycin equivalent, 2 hours post delivery, HPLC. The source says:
FIG. 10 illustrates blood levels of rapamycin following oral delivery of polymeric nanoparticles. Rapamycin was encapsulated in nanoparticles comprised of increasing order of acrylic acid (AA) percentage in the co-polymeric composition. The nanoparticles were either administered as is, or after surface PEGylation. Compared are: Control A (rapamycin suspended in water); rapamycin nanoparticle comprised of NIPAAM:VP:AA in a ratio of 60:30:10 (designated as NVA631); rapamycin nanoparticle comprised of NIPAAM:VP:AA in a ratio of 60:20:20 (designated as NVA622); rapamycin nanoparticle comprised of NIPAAM:VP:AA in a ratio of 60:10:30 (designated as NVA613); and rapamycin nanoparticle comprised of NIPAAM:MMA:AA in a ratio of 60:20:20 (designated as NMA622). The corresponding PEGylated nanoparticles (PEG-NVA-631, PEG-NVA-622, PEG-NVA-613, and PEG-NMA-622) encapsulating rapamycin are designated as shaded bars. […] Blood levels are measured by HPLC from samples obtained at 2 hours post oral delivery.
Rapamycin is a poorly water soluble drug that has low oral bioavailability. […] At 2 hours post oral administration, the mice were bled and rapamycin concentrations in the blood were determined by high performance liquid chromatography (HPLC). […]

SMILES strings stand for the structures.

Consider `COc1cccc2c1C(=O)c1c(O)c3c(c(O)c1C2=O)C[C@@](O)(C(=O)CO)C[C@@H]3O[C@H]1C[C@H](N)[C@H](O)[C@H](C)O1` [DOX, doxorubicin], for which, in data set [1], the “Hemoglobin and leukocyte counts” value is “reduced”. Besides, the “Hemoglobin (Hb) level, average” value in data set [1] (control 12.5 g/dL) worked out at 7.5 g/dL. In addition, in data set [2] (cumulative dose of 550 mg/m2), the “patients developing congestive heart failure (CHF)” value is reported as 26%. Moreover, the “frequency of CHF in pediatric acute lymphoblastic leukemia (ALL) patients” value in data set [2] (pediatric ALL patients) is reported as not above 57%. For the same compound, in data set [3], the “glutathione level (western blot)” value is given as “marked decrease” and the “glutathione peroxidase (GPx) level (ELISA)” value is on record as “marked decrease”.
Regarding `Nc1ccn([C@@H]2O[C@H](CO)[C@@H](O)C2(F)F)c(=O)n1` [free gemcitabine, gemcitabine], in data set [4], the “activity in cell viability assay” value is “comparable activity”.
For the compound `CC(=O)O[C@H]1C(=O)[C@@]2(C)[C@H]([C@H](OC(=O)c3ccccc3)[C@]3(O)C[C@H](OC(=O)[C@H](O)[C@@H](NC(=O)c4ccccc4)c4ccccc4)C(C)=C1C3(C)C)[C@]1(OC(C)=O)CO[C@@H]1C[C@@H]2O` [free paclitaxel, paclitaxel], the “solubility in water (turbidity / transparency of solution)” value in data set [5] is “essentially insoluble in water”.
With `CO[C@H]1C[C@@H]2CC[C@@H](C)[C@@](O)(O2)C(=O)C(=O)N2CCCC[C@H]2C(=O)O[C@H]([C@H](C)C[C@@H]2CC[C@@H](O)[C@H](OC)C2)CC(=O)[C@H](C)/C=C(\C)[C@@H](O)[C@@H](OC)C(=O)[C@H](C)C[C@H](C)/C=C/C=C/C=C/1C` [free rapamycin, rapamycin], in data set [5], the “solubility in water (turbidity / transparency of solution)” value is listed as “essentially insoluble in water”. Besides, in data set [6], the “blood levels of rapamycin” value is listed as “essentially undetectable”.
On to `CO[C@H]1/C=C/O[C@@]2(C)Oc3c(C)c(O)c4c(O)c(c(/C=N/N5CCN(C)CC5)c(O)c4c3C2=O)NC(=O)/C(C)=C\C=C\[C@H](C)[C@H](O)[C@@H](C)[C@@H](O)[C@@H](C)[C@H](OC(C)=O)[C@@H]1C` [free rifampicin, rifampicin], for which, in data set [5], the “solubility in water (turbidity / transparency of solution)” value was “essentially insoluble in water”.
